In US7053052B2, “Therapies involving mutated heat shock transcription factor” (priority 1997, dated 2006):

Test system: HepG2 cells
Assay: Mortality from exposure to cyclophosphamide (LDH release, mortality)
Settings: 20 mM, 24 hour exposure

O=P1(N(CCCl)CCCl)NCCCO1 (stereo not shown) [cyclophosphamide, reference compound]
mortality caused by cyclophosphamide: 38%
